From patent publication US5177106A, “4-amino substituted phenoxyalkyl carboxylic acid, ester, and alcohol derivatives as antihypercholesterolemic and antiatherosclerotic agents” (Warner-Lambert Company, priority 1991, dated 1993)
pIC50: −log10 of the molar value.

How the values were obtained:
[1] = target: T1, acyl-CoA:cholesterol acyltransferase (ACAT) (Oryctolagus cuniculus, UniProt G1SFD9); experiment: Inhibition of cholesterol esterification by acyl-CoA:cholesterol acyltransferase (ACAT), in vitro, rabbit intestinal microsomal fraction; type: biochemical; conditions: endogenous cholesterol and exogenous 14C-oleoyl-CoA, read-out: IC50 (concentration of test compound required to inhibit cholesteryl oleate formation to 50% of control)
T1 construct: rabbit intestinal microsomal fraction; from tissue; host or cells: rabbit intestine, microsomal fraction
T1 sequence (G1SFD9 1-524): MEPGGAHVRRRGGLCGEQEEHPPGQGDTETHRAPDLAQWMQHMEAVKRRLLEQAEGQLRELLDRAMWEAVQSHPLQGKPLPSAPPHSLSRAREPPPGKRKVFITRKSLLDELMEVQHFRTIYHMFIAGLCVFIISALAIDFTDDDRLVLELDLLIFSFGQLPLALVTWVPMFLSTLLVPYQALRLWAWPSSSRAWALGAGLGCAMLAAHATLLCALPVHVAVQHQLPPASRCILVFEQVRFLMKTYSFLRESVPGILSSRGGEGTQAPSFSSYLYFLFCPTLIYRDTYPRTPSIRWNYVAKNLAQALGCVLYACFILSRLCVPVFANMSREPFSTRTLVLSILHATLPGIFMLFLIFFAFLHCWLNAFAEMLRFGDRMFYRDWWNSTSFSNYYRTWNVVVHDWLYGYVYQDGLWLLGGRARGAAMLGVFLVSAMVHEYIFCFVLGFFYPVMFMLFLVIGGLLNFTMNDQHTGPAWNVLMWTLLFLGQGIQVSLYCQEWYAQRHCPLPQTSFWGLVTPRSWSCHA
Description: The compounds of the present invention were tested for their ability to inhibit the esterification of cholesterol by the enzyme acyl-CoA:cholesterol acyltransferase (ACAT). The data in the table below is expressed as IC50 values, i.e., the concentration of test compound required to inhibit cholesteryl oleate formation to 50% of control.
The in vitro test employed is more fully described in Field, F. J. and Salome, R. G., Biochemica et Biophysica Acta, Volume 712, pages 557-570 (1982). The assay evaluates the ability of a test compound to inhibit the esterification of cholesterol using endogenous cholesterol of a rabbit intestinal microsomal fraction and exogenous ^14 C-oleoyl-CoA as reactants.

[2] = Elevation of HDL by test drug relative to gemfibrozil (test procedure of U.S. Pat. No. 4,413,011); type: in vivo; conditions: ratio; 50 mg/kg test drug vs 50 mg/kg gemfibrozil; 1 = as effective as gemfibrozil
Description: Additionally, the elevation of HDL is reported in the table as a ratio of the elevation of HDL effected by a dose of 50 mg/kg of the test drug divided by the elevation of HDL effected by a 50 mg/kg dose of gemfibrozil which is used as a control in each experiment. [formula] Thus, a figure of 1 means that the test drug was as effective as gemfibrozil in elevating HDL. […] The test procedure is described in U.S. Pat. No. 4,413,011, which is herein incorporated by reference.

[3] = patients with elevated cholesterol levels; 5-year trial; cited from earlier work

SMILES: COC(=O)C(C)(C)CCCOc1cc(C)c(NS(C)(=O)=O)cc1C [Example 12]
- pIC50 [1]: 4.16
- Δ HDL Test Compound / Δ HDL Gemfibrozil [2]: 1.5

SMILES: COC(=O)C(C)(C)CCCOc1cc(C)c(NC(=S)Nc2ccccc2)cc1C [Example 16, 5-[2,5-Dimethyl-4-[[(phenylamino)-thioxomethyl]amino]phenoxy]-2,2-dimethylpentanoic acid, methyl ester]
- pIC50 [1]: 4.55
- Δ HDL Test Compound / Δ HDL Gemfibrozil [2]: 0.9

SMILES: Cc1ccc(C)c(OCCCC(C)(C)C(=O)O)c1 [gemfibrozil]
- reduction of the rate of heart attack and sudden cardiac death [3]: 34%

SMILES: CCCCCCCCCCCCCCCCS(=O)(=O)Nc1cc(C)c(OCCCC(C)(C)C(=O)OC)cc1C [Example 5, 5-[4-[(Hexadecylsulfonyl)amino]-2,5-dimethylphenoxy]-2,2-dimethylpentanoic acid, methyl ester]
- pIC50 [1]: 4.13
- Δ HDL Test Compound / Δ HDL Gemfibrozil [2]: 0.8
